Our source for the IC50 and inhibition values is patent US8791123B2, “Substituted pyrazolo[1,5-a]pyrimidine compounds as Trk kinase inhibitors” (Array Biopharma, Inc., priority 2009, dated 2014).

Broadly, the IC50 is the concentration that inhibits the measured activity by half. The term inhibition denotes the change of the read-out against control, counted positive when it falls.

Assay type in all cases: biochemical
In assay [1] the target is GST-tagged human Jak3 kinase domain (Homo sapiens (Human), UniProt P52333). Kind of assay: Jak3 Inhibition Assay (Omnia kinase assay). Particulars: Table 2; for IC50: 500 μM ATP. The method, then: (§1) The assays described in Examples C, D, E and F for the determination of JAK1, JAK2, JAK3 and Tyk2 kinase activity, respectively, utilized the Omnia® Kinase fluorescence peptide substrate-based technology (Invitrogen). […] The reactions were therefore read at excitation 360 nm and emission was measured at 485 nm every 50 seconds for 45 minutes using a PerkinElmer EnVision Multilabel Plate Reader.
(§2) The final buffer conditions for each of the JAK1, JAK2, JAK3 and Tyk2 assays were as follows: 25 mM HEPES, pH 7.4, 10 mM MgCl2, 0.01% Triton X-100 and 1 mM DTT.
(§3) Compounds were prepared at 50× the final concentration in DMSO by conducting 3-fold serial dilutions from a 500-μM or 1000-μM intermediate dilution to give a 10-point dosing curve having a high dose of 10 or 20 μM. Two-μL aliquots of these were transferred to a fresh plate for a ten-fold intermediate dilution with assay buffer. Five-μL aliquots of the diluted compounds were then transferred to 20-μL of assay mixtures described in Examples C, D, E and F for a final concentration of DMSO of 2%. A standard or reference compound was typically included on each assay plate to validate that plate. For each plate, percent of control (POC) values were calculated for each well according to the following equation:
(§4) [formula] • where • Xmax=Average Uninhibited Controls • Xmin=Average Background IC50's were estimated from the POC's using a standard 4-parameter logistic model:
(§5) [formula] • where • A=Minimum Y (Bottom Asymptote) • B=Maximum Y (Top Asymptote) • C=EC50 • D=Slope Factor • X=Compound Concentration (nM) • Y=POC
(§6) The IC50 is defined as the concentration of inhibitor at which the POC equals 50 for the fitted curve.
Compounds of Formula I were screened for their ability to inhibit Jak3 using the general enzyme inhibition assay method, in which the assay mixture contained 500 μM ATP, 10 μM Omnia® Y7 peptide (Catalog # IVGN KNZ3071C, Invitrogen Corporation, Carlsbad, Calif.) and 1.5 nM Jak3 in a total volume of 20 μL. GST-tagged human Jak3 kinase domain comprising amino acids 781-1124 was purchased from Invitrogen Corporation, Carlsbad, Calif. (catalog # IVGN PV3855).

For assay [2], the target named is TrkA (histidine-tagged recombinant human TrkA, cytoplasmic domain) (Homo sapiens (Human), UniProt P04629). Kind of assay: TrkA ELISA Assay. Summed up: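 ELISA read-out: a peroxidase-linked anti-phosphotyrosine antibody (PY20, 0.2 μg/mL) with TMB substrate, absorbance at 450 nm after acid stop. The plate-bound substrate was poly(Glu,Ala,Tyr; 6:3:1) at 0.025 mg/mL, phosphorylated by the recombinant His-tagged human TrkA cytoplasmic domain in the presence of inhibitors.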
A general note: ELISA stands for enzyme-linked immunosorbent assay.

For assay [3], the target named is GST-tagged human Jak1 kinase domain (Homo sapiens (Human), UniProt P23458). Kind of assay: Jak1 Inhibition Assay (Omnia kinase assay). Particulars: Table 2; for IC50: 500 μM ATP. On the procedure:
as §1, §2, §3, §4, §5, §6
Compounds of Formula I were screened for their ability to inhibit Jak1 using the general enzyme inhibition assay method, in which the assay mixture contained 500 μM ATP, 8 μM Omnia® Y12 peptide (Catalog # IVGN KPZ3121C; Invitrogen Corporation, Carlsbad, Calif.) and 5 nM Jak1 in a total volume of 20 μL. […] (catalog # IVGN PV4774).

The target of assay [4] is Human Tyk2 kinase domain (Homo sapiens (Human), UniProt P29597). Kind of assay: Tyk2 Inhibition Assay (Omnia kinase assay). Particulars: Table 2; for IC50: 500 μM ATP. On the procedure: as §1, §2, §3, §4, §5, §6
Compounds of Formula I were screened for their ability to inhibit Tyk2 using the general enzyme inhibition assay method, in which the assay mixture contained 500 μM ATP, 8 μM Omnia® Y12 peptide (Catalog # IVGN KPZ3121C; Invitrogen Corporation, Carlsbad, Calif.) and 1 nM Tyk2 in a total volume of 20 μL. Human Tyk2 kinase domain, comprising amino acids 886 to 1187 with 10 additional histidine residues (histidine tag) on the carboxy terminus, was expressed and purified from bacculovirus in-house at Array BioPharma Inc. (Boulder, Colo.). The histidine tag was cleaved after purification using standard conditions.

In assay [5] the target is Human Jak2 kinase domain (Homo sapiens (Human), UniProt O60674). Kind of assay: Jak2 Inhibition Assay (Omnia kinase assay). To be noted: for IC50: 500 μM ATP; for inhibition at 1 µM: 1000 nM test compound.
Setting [6] is: Table 1, ELISA, 500 μM ATP, read-out: TrkA Enzyme IC50.
[7] abbreviates: Table 1, >1000 nM when >50% inhibition not observed at 1000 nM, read-out: Jak2 Enzyme IC50.

Like-named read-outs stand apart in the source and are kept apart here.

Sequence of TrkA (histidine-tagged recombinant human TrkA, cytoplasmic domain) (P04629 440-796): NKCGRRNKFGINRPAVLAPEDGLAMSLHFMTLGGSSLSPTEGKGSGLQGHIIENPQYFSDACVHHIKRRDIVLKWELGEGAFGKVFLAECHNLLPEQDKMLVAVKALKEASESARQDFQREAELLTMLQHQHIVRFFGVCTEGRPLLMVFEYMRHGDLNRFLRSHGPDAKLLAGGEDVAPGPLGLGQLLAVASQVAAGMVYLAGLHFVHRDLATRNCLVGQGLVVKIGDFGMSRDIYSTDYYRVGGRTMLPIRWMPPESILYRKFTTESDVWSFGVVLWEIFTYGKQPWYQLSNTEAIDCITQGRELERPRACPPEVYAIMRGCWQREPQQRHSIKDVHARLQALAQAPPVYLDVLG
Sequence of Human Jak2 kinase domain (O60674 808-1132): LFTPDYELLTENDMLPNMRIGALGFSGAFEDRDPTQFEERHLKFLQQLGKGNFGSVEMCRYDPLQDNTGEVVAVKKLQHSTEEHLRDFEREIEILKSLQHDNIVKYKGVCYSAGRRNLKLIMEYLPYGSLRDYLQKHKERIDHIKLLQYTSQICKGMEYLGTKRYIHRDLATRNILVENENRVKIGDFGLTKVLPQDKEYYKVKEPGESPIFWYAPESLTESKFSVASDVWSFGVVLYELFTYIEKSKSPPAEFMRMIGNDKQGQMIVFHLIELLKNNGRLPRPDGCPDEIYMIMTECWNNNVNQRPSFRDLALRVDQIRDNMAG
Sequence of GST-tagged human Jak1 kinase domain (P23458 866-1154): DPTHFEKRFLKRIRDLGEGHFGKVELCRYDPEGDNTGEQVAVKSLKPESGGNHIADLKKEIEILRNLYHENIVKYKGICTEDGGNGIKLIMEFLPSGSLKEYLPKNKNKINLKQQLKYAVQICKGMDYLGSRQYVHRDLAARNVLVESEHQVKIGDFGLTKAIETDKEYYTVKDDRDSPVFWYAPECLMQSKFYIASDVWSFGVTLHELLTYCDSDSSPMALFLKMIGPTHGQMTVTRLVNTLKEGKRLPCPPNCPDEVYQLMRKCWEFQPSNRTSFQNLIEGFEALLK
Sequence of Human Tyk2 kinase domain (P29597 886-1187): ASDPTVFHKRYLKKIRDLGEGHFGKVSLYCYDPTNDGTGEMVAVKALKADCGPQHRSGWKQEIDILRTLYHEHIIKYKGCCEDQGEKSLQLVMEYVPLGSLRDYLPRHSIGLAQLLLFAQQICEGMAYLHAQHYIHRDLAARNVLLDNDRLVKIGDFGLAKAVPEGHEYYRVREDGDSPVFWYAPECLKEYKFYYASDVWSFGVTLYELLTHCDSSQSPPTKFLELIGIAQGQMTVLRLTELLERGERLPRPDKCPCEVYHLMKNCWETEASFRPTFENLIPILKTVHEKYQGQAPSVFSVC
Sequence of GST-tagged human Jak3 kinase domain (P52333 781-1124): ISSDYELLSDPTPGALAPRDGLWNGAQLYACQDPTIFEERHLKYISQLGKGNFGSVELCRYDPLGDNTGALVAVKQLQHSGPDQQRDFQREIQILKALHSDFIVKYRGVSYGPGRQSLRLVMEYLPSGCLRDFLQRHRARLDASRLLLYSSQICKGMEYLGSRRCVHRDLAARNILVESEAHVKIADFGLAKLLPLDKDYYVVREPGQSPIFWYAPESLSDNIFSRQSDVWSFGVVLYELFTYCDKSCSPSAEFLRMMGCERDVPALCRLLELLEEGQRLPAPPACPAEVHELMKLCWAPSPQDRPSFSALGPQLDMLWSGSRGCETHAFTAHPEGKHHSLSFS

Turning to `CNC(=O)c1cnn2ccc(N3CCC[C@@H]3c3cncc(F)c3)nc12` [Example 114, (R)-5-(2-(5-fluoropyridin-3-yl)pyrrolidin-1-yl)-N-methylpyrazolo[1,5-a]pyrimidine-3-carboxamide], the half-inhibitory concentration (IC50) in assay [1] is above 1000 nM; in assay [2] (setting [6]), 29.9 nM; in assay [2] (Table 2, read-out: TrkA IC50) it was 17.1 nM; in assay [3], above 1000 nM; in assay [4], above 1000 nM; in assay [5] (setting [7]) it was above 1000 nM. Besides, the 50% inhibitory concentration (IC50) in assay [5] (Table 2, read-out: Jak2 IC50) is above 1000 nM.
For `O=C(NCC1CC1)c1cnn2ccc(N3CCC[C@@H]3c3cncc(F)c3)nc12` [Example 106, (R)-N-(cyclopropylmethyl)-5-(2-(5-fluoropyridin-3-yl)pyrrolidin-1-yl)pyrazolo[1,5-a]pyrimidine-3-carboxamide], the IC50 in assay [1] was above 1000 nM; in assay [2] (setting [6]), 7.7 nM; in assay [2] (Table 2, read-out: TrkA IC50), 7.6 nM; in assay [3] it was above 1000 nM; in assay [4], above 1000 nM; in assay [5] (setting [7]), above 1000 nM. Moreover, the IC50 in assay [5] (Table 2, read-out: Jak2 IC50) was above 1000 nM.
Take `Cc1ncc(F)cc1[C@H]1CCCN1c1ccn2ncc(C(=O)NC3(C)CC3)c2n1` [Example 190, (R)-5-(2-(5-fluoro-2-methylpyridin-3-yl)pyrrolidin-1-yl)-N-(1-methylcyclopropyl)pyrazolo[1,5-a]pyrimidine-3-carboxamide]: the IC50 in assay [1] was above 1000 nM; in assay [2] (setting [6]), 2.4 nM; in assay [2] (Table 2, read-out: TrkA IC50) it was 2.4 nM; in assay [3] it was above 1000 nM; in assay [4], above 1000 nM; in assay [5] (setting [7]), above 1000 nM. For the same compound, in assay [5] (Table 2, read-out: Jak2 IC50), the IC50 was above 1000 nM.
On to `Cc1ncc(F)cc1[C@H]1CCCN1c1ccn2ncc(C(=O)NC3CC3)c2n1` (stereo in doubt) [Example 181, N-cyclopropyl-5-(2-(5-fluoro-2-methylpyridin-3-yl)pyrrolidin-1-yl)pyrazolo[1,5-a]pyrimidine-3-carboxamide], for which the IC50 in assay [1] is above 1000 nM; in assay [2] (setting [6]) it was 17.1 nM; in assay [2] (Table 2, read-out: TrkA IC50), 29.8 nM; in assay [3] it was above 1000 nM; in assay [4], above 1000 nM; in assay [5] (setting [7]), above 1000 nM. In addition, the IC50 in assay [5] (Table 2, read-out: Jak2 IC50) is above 1000 nM. The inhibition at 1 µM in assay [1] (read-out: Jak3 (% inhibition at 1000 nM), 1000 nM test compound) came out at 8.9%; in assay [3] (read-out: Jak1 (% inhibition at 1000 nM), 1000 nM test compound) it was 12.8%; in assay [4] (read-out: Tyk2 (% inhibition at 1000 nM), 1000 nM test compound), 10.7%; in assay [5] (read-out: Jak2 (% inhibition at 1000 nM), Table 2), 18.1%; in assay [5] (read-out: Jak2 Enzyme (% inhibition at 1000 nM), Table 1), 5.2%.
On to `NC(=O)c1cnn2ccc(N3CCC[C@@H]3c3cc(F)ccc3F)nc12` [Example 30, (R)-5-(2-(2,5-difluorophenyl)pyrrolidin-1-yl)pyrazolo[1,5-a]pyrimidine-3-carboxamide], for which the half-inhibitory concentration (IC50) was above 1000 nM in assay [1]; 1.95 nM in assay [2] (setting [6]); 1.9 nM in assay [2] (Table 2, read-out: TrkA IC50); above 1000 nM in assay [3]; above 1000 nM in assay [4]; above 1000 nM in assay [5] (setting [7]). Further, the IC50 in assay [5] (Table 2, read-out: Jak2 IC50) is above 1000 nM.
Turning to `COc1ncc(F)cc1[C@H]1CCCN1c1ccn2ncc(C(=O)N[C@H]3CC[C@H](O)CC3)c2n1` [Example 140, 5-((R)-2-(5-fluoro-2-methoxypyridin-3-yl)pyrrolidin-1-yl)-N-((trans)-4-hydroxycyclohexyl)pyrazolo[1,5-a]pyrimidine-3-carboxamide], the IC50 was above 1000 nM in assay [1] and 546 nM in assay [3].
In the case of `CC[C@@H](CO)NC(=O)c1cnn2ccc(N3CCC[C@@H]3c3cc(F)ccc3F)nc12` [Example 178, 5-((R)-2-(2,5-difluorophenyl)pyrrolidin-1-yl)-N-((S)-1-hydroxybutan-2-yl)pyrazolo[1,5-a]pyrimidine-3-carboxamide], the results for the IC50 in assay [2] (setting [6]) and in assay [5] (setting [7]) were 2.5 nM and above 1000 nM, respectively.
As for `O=C(c1cnn2ccc(N3CCC[C@@H]3c3cncc(F)c3)nc12)N1CCCC1` [Example 94, (R)-(5-(2-(5-fluoropyridin-3-yl)pyrrolidin-1-yl)pyrazolo[1,5-a]pyrimidin-3-yl)(pyrrolidin-1-yl)methanone], the half-inhibitory concentration (IC50) in assay [2] (setting [6]) is 568 nM; in assay [5] (setting [7]) it was above 1000 nM.
The corresponding values for `O=C(NCCO)c1cnn2ccc(N3CCCC3c3cc(F)ccc3F)nc12` (centres unmarked) [Example 165, 5-(2-(2,5-difluorophenyl)pyrrolidin-1-yl)-N-(2-hydroxyethyl)pyrazolo[1,5-a]pyrimidine-3-carboxamide] are 1.1 nM and above 1000 nM.
On to `Cc1ncc(F)cc1[C@H]1CCCN1c1ccn2ncc(C(=O)NC3(CO)CC3)c2n1` [Example 193, (R)-5-(2-(5-fluoro-2-methylpyridin-3-yl)pyrrolidin-1-yl)-N-(1-(hydroxymethyl)cyclopropyl)pyrazolo[1,5-a]pyrimidine-3-carboxamide], for which the figures for the IC50 in assay [2] (setting [6]) and in assay [5] (setting [7]) were 15.6 nM and above 1000 nM, respectively.
The corresponding values for `O=C(NC1CC1)c1cnn2ccc(N3CCC[C@@H]3c3cc(F)cc(OCCN4CCOCC4)c3)nc12` [Example 85, (R)—N-cyclopropyl-5-(2-(3-fluoro-5-(2-morpholinoethoxy)phenyl)pyrrolidin-1-yl)pyrazolo[1,5-a]pyrimidine-3-carboxamide] are 9.38 nM and above 1000 nM.
`CC1(O)CN(C(=O)c2cnn3ccc(N4CCC[C@@H]4c4cc(F)ccc4F)nc23)C1` [Example 32, (R)-(5-(2-(2,5-difluorophenyl)pyrrolidin-1-yl)pyrazolo[1,5-a]pyrimidin-3-yl)(3-hydroxy-3-methylazetidin-1-yl)methanone]: the results for the IC50 in assay [2] (setting [6]) and in assay [5] (setting [7]) were 5.3 nM and above 1000 nM, respectively.
For `COc1ncc(F)cc1[C@H]1CCCN1c1ccn2ncc(C(=O)N3CC(C)(O)C3)c2n1` [Example 147, (R)-(5-(2-(5-fluoro-2-methoxypyridin-3-yl)pyrrolidin-1-yl)pyrazolo[1,5-a]pyrimidin-3-yl)(3-hydroxy-3-methylazetidin-1-yl)methanone], in that order: 30.8 nM and above 1000 nM.
Take `O=C(c1cnn2ccc(N3CCC[C@@H]3c3cncc(F)c3)nc12)N1CCC1` [Example 126, (R)-azetidin-1-yl(5-(2-(5-fluoropyridin-3-yl)pyrrolidin-1-yl)pyrazolo[1,5-a]pyrimidin-3-yl)methanone]: the half-inhibitory concentration (IC50) was 218 nM in assay [2] (setting [6]) and above 1000 nM in assay [5] (setting [7]).
The corresponding values for `Cn1cc(F)cc([C@H]2CCCN2c2ccn3ncc(C(=O)N[C@H](CO)C(C)(C)C)c3n2)c1=O` [Example 233, 5-((R)-2-(5-fluoro-1-methyl-2-oxo-1,2-dihydropyridin-3-yl)pyrrolidin-1-yl)-N-((S)-1-hydroxy-3,3-dimethylbutan-2-yl)pyrazolo[1,5-a]pyrimidine-3-carboxamide] are 75.9 nM and above 1000 nM.
The corresponding values for `O=C(N[C@H]1CCC[C@H]1O)c1cnn2ccc(N3CCC[C@@H]3c3cncc(F)c3)nc12` [Example 104, 5-((R)-2-(5-fluoropyridin-3-yl)pyrrolidin-1-yl)-N-((1S,2R)-2-hydroxycyclopentyl)pyrazolo[1,5-a]pyrimidine-3-carboxamide] are 83.1 nM and above 1000 nM.
